Assay results reported in US20250090477A1, “TRANSDERMAL PATCH PROVIDING IMPROVED PERMEABILITY AND COMPOSITION” (HydraPatch Inc., priority 2019, published 2025).

Experiment: effect of including leucine in the patch formula on appetite levels
Assay type: in vivo
Settings: inclusion of leucine in the formula of the adhesive matrix; found experimentally, no method or data given
From the text: In an exemplary embodiment, adhesive matrix 130 may further include an anti-inflammatory. While dimethyl sulfoxide and menthol may in and of themselves act as anti-inflammatories, additional ingredients acting as dedicated anti-inflammatories may be added. For the purposes of this specification, “anti-inflammatory” is used to mean any medication, compound, or ingredient recognized by the FDA as useful for anti-inflammatory purposes. Yet further, adhesive matrix 130 may include amino acids. Leucine is an exemplary amino acid which may be incorporated into the formula. Leucine may function in the patch to synthesize sterols, and may also act to regulate blood pressure, energy levels, and hormone secretion. […] Adhesive matrix 130 may further comprises glycerin. Glycerin may act as a plasticizer and humectant to preserve the flexibility and formulaic integrity of adhesive matrix 130, and may also provide additional benefits of relieving skin irritation and reducing interference with skin oils when transdermal patch 100 is placed in contact with skin.

Compound: CC(C)C[C@H](N)C(=O)O [leucine, Leucine]
- appetite levels: reduce appetite levels
